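A five-concentration, 48-hour dose response in 96-well plates underlies each endpoint, interpolated linearly between surrounding concentrations. At the TGI there is no net growth.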
Key:
Test in all cases: DTP human tumour cell line panel, 48 h
[1] = test system: A549 NSCLC
[2] = test system: BT-549 breast
[3] = test system: CAKI-1 renal
[4] = test system: COLO 205 colon
[5] = test system: HCC-2998 colon
[6] = test system: HOP-92 NSCLC
[7] = test system: MDA-MB-231 breast
[8] = test system: NCI-H522 lung
[9] = test system: PC-3 prostate
[10] = test system: SF-268 CNS
[11] = test system: SF-539 CNS
[12] = test system: SK-MEL-5 melanoma
[13] = test system: SN12C renal
[14] = test system: SW-620 colon
[15] = test system: U251 CNS
[16] = test system: UACC-62 melanoma
[17] = test system: OVCAR-3 ovarian
[18] = test system: UO-31 renal

| SMILES | TGI [1] [µM] | TGI [2] [µM] | TGI [3] [µM] | TGI [4] [µM] | TGI [5] [µM] | TGI [6] [µM] | TGI [7] [µM] | TGI [8] [µM] | TGI [9] [µM] | TGI [10] [µM] | TGI [11] [µM] | TGI [12] [µM] | TGI [13] [µM] | TGI [14] [µM] | TGI [15] [µM] | TGI [16] [µM] | TGI [17] [µM] | TGI [18] [µM] |
| --- | --- | --- | --- | --- | --- | --- | --- | --- | --- | --- | --- | --- | --- | --- | --- | --- | --- | --- |
| Cc1ccc(-c2c(C#N)c(-c3ccccc3)n(NS(=O)(=O)c3ccc(C)cc3)c(=O)c2C#N)cc1 | > 100 | > 100 | > 100 | > 100 | > 100 | > 100 | > 100 | > 100 | > 100 | > 100 | > 100 | 62.5 | > 100 | > 100 | > 100 | > 100 | – | – |
| Cc1ccc2c(c1)C(=O)C1(C2)Cc2c(C)cccc2C1=O (stereo unspecified) | > 100 | > 100 | > 100 | > 100 | > 100 | > 100 | > 100 | > 100 | > 100 | > 100 | > 100 | > 100 | > 100 | > 100 | > 100 | > 100 | > 100 | > 100 |
| O=C(CC(O)(C(F)(F)F)C(F)(F)F)C(c1ccccc1)C(O)(C(F)(F)F)C(F)(F)F (stereo unspecified) | > 100 | > 100 | > 100 | > 100 | > 100 | 13 | > 100 | > 100 | > 100 | – | 94.1 | > 100 | – | > 100 | > 100 | > 100 | 83.4 | > 100 |
| CC(=O)Nc1ccc(-c2nc3ccccc3s2)cc1Br | > 100 | > 100 | > 88.1 | > 100 | > 100 | > 100 | > 89 | > 100 | > 100 | > 100 | > 77.3 | > 100 | > 100 | > 100 | > 100 | > 100 | > 100 | > 100 |
| CC(=O)C(C(=O)c1ccc(C)cc1)[C@@H]1OC(C)(C)O[C@@H]1[C@H]1COC(C)(C)O1 (stereo partly specified) | > 91.6 | > 32.4 | 53.6 | 39.6 | > 53.4 | > 100 | > 35.1 | 11.3 | > 31.9 | > 83.4 | 13.2 | 29.2 | 17.3 | > 54.6 | 18.5 | 25.8 | 24.4 | > 41.5 |
| Cc1sc2nc(N(C)C)oc(=O)c2c1C | > 100 | 49.1 | > 100 | > 100 | > 100 | > 100 | > 100 | > 100 | > 100 | > 100 | > 100 | > 100 | > 100 | > 100 | > 100 | > 100 | – | > 100 |
| C[C@]12CC[C@H]3[C@@H](CCC4=CC(=O)CC[C@@H]43)[C@@H]1CC[C@]2(O)C(N)=O | > 100 | > 100 | – | > 100 | > 100 | > 100 | > 100 | > 100 | > 100 | > 100 | > 100 | > 100 | > 100 | > 100 | > 100 | > 100 | > 100 | > 100 |
| CC(=O)OCC1OC(NC(=S)Nn2c(=O)[nH]c3ccccc3c2=O)C(OC(C)=O)C(OC(C)=O)C1OC(C)=O (stereo unspecified) | > 100 | > 100 | > 100 | > 100 | > 100 | > 100 | > 100 | > 100 | > 100 | > 100 | > 100 | > 100 | > 100 | > 100 | > 100 | > 100 | > 100 | > 100 |
| CC[C@@]1(O)C(=O)OCc2c1cc1n(c2=O)Cc2c-1nc1ccccc1c2/C=N\NC(=O)C[n+]1ccccc1 | > 100 | > 100 | 20 | > 100 | > 100 | > 31.6 | > 100 | > 43.5 | > 100 | > 69.5 | 0.971 | 2.09 | > 69 | > 100 | 32 | 1.22 | > 79.4 | 2.56 |
| Nc1cc(Cl)cc2cc(Cl)cnc12 | > 100 | > 100 | > 100 | > 100 | > 100 | 99.3 | > 100 | > 100 | > 100 | > 100 | > 100 | > 100 | > 100 | > 100 | > 100 | > 100 | > 100 | > 100 |
| CC1=NN(c2ccccc2)C2(C1)C(Cl)C(=O)N2c1nc2ccccc2s1 (stereo unspecified) | > 100 | > 100 | > 100 | 80.6 | > 100 | > 100 | 89.2 | 58.9 | > 100 | > 100 | – | 73.3 | > 100 | > 100 | > 100 | > 100 | 47.9 | > 100 |
| CCOC(=O)CC[C@H](N)C(=O)N[C@@H](Cc1ccc(N(CCCl)CCCl)cc1)C(=O)OCC | > 48.9 | 22.3 | 4.39 | 2.3 | 2.59 | 1.62 | 4.41 | 2.54 | 7.46 | 7.07 | 2.8 | 3.13 | 9.22 | 5.87 | 7.39 | 1.84 | 1.82 | 3.44 |
| O=S(=O)(O)CCSSCCS(=O)(=O)O | > 1000 | > 1000 | > 1000 | > 1000 | > 1000 | > 1000 | > 1000 | > 1000 | > 1000 | > 1000 | > 1000 | – | > 1000 | > 1000 | > 1000 | > 1000 | > 1000 | > 1000 |

Reference: PubChem BioAssay (NCI)
